Source: US12419308B2, “Phenylpyrazole insecticide compounds and compositions” (priority 2023, dated 2025)
Read-outs that look alike come from different tables or passages of the source.

Columns and labels:
[1] = Egg concentration analysis from topically treated chickens; assay type: in vivo; conditions: eggs from Day 5
Protocol: One animal is left untreated as a negative control.
A modified and optimized QuEChERS protocol was employed to extract the compounds from eggs. The shell is manually removed, and then each egg is transferred to a clean beaker and homogenized with an electric mixer for small volumes. 5 grams of homogenized egg is put into a 50 mL Falcon tube, and 5 mL of water is added and the samples are shaken for 10 minutes. Next, 10 mL of acetonitrile is added and the samples are shaken again for 10 minutes. Then the roQ salts (4.0 g MgSO4, 1.0 g NaCl, 1.0 SCTD and 0.5 g SCDS, Phenomenex P/N KS08909) are added to each sample, and the mixture is well shaken for 10 minutes. Samples are then centrifuged at 2500 g for 5 minutes at room temperature, and the supernatant is transferred to an HPLC vial for analysis. The same HPLC-MS method is used as described above.
One egg from two chickens is analyzed: one chicken treated with Fipronil and one chicken treated with the Compound of Example 1. The eggs are both from Day 5. The results are shown in the following tables expressed as relative LC-MS peak area: […]

[2] = system: Human Cryopreserved Hepatocytes; assay: Metabolic stability in human cryopreserved hepatocytes; assay type: in vitro ADME
Protocol: The metabolic stability of the Compounds of Examples 1 and 4 is therefore evaluated to determine whether metabolic degradation results in metabolites of concern.
Briefly, Human Cryopreserved Hepatocytes (Gibco, lot. HUE125) are added to incubation wells in a 96-well assay plate at a density of 500,000 cells/mL in William's E Medium. […] The wells are incubated at 37° C. and stop solution is added to wells at time points: 0, 30, 60, 120, 240 min. The stop solution is ice-cold solution containing 0.5 μM labetalol in acetonitrile (100 μL/well) (2:1, vol/vol). Each time point is tested in triplicate. Analysis is carried out by LC-MS.
• Instrument: QExactive • Column: Luna Omega 1.6 μm polar C18 100 Å (150×2.1 mm) • Column temperature: 40° C. • Column No: 102+pre-column installed • Injection volume: 2 μl • Flux: 0.40 mL/min • Polarity: Negative • Fluent A: water Milli Q+0.1% FA • Fluent B: ACN+0.1% FA • Acquisition method: Full MS+DDS on the IL obtained with MassMetaSite (peak others ON).

[3] = system: adult worker honeybees, Apis mellifera L; assay: Acute oral toxicity test in honeybees (OECD 213); assay type: in vivo
Protocol: Untreated 50% w/v sucrose solution with 0.2% of propanol-water solution (ratio 80%-20%) is used as a negative control.
The test item is diluted with aqueous sucrose solution 50% (w/v) to prepare the oral solutions. The bees used for the oral test are anesthetized with carbon dioxide for the time necessary to immobilize them and placed inside the test cages; 2 hours before the treatment they are starved. A volume of 200 μL (20 μL/bee) of treated diet is administered to each cage with a dispenser (e.g., a syringe without tip), weighed before and after filling.
The overall exposure period is 6 hours, during which consumption is monitored: the feeder is changed at the end of the six hours or once the treated diet has been consumed (usually within 3-4 hours). In both cases, the feeder is weighed and a new feeder with untreated 50% (w/v) sucrose solution is provided ad libitum, and the mean effective dose is calculated based on the actual consumption.

[4] = system: adult worker honeybees, Apis mellifera L; conditions: contact
Source text: In accordance with OECD Test Guidelines No. 213 and 214, the test is considered valid if: (1) the average mortality of the control groups is ≤10% at the end of the test; and the average, control-corrected mortality of the reference item groups is ≥50% at the end of the test, at the tested dose (internal validity criteria according to POS BT200).
Young Apis mellifera L. worker honeybees are randomly collected in the morning of use or the day before from an adequately fed, healthy diseases-free and queen right beehive, not treated with chemical substances. Hives from an established apiary colony are used, and the colonies are inspected periodically, according to standard bee-keeping practices. All colonies are kept outside under field conditions and bees collect food from the environment. The last treatment against Varroa mites was done in November 2023. The bees are fed ad libitum with a water sucrose solution 50% w/v (or 500 g/L), prepared with tap water.
Adult worker honeybees are exposed to three increasing doses of the test item (see Table 2) by direct application to the thorax (droplets, see section 4.5.2). One control group is treated with propanol-water solution (ratio 80%-20%) in addition to test item groups.
Bee mortality is recorded after 4, 24 and 48 hours, and compared with the control value. If the mortality rate increases by more than 10% between 24 and 48 hours, whilst the control mortality rate remains ≤10%, the is extended to a maximum of 96 hours.
The test item is diluted in propanol-water solution (ratio 80%-20%) to prepare the contact solutions.
The bees used for the contact test are anaesthetized with carbon dioxide and individually treated by topical application of 2 μL of the test solutions onto the thorax using a micro applicator. The honeybees are then be moved to the cages and fed ad libitum with sucrose solution.
Disposable and well-ventilated cages with an internal volume not lower than 200 cm^3 are used. Each cage is equipped with a transparent lid, for a suitable observation of the bees from outside. The upper side of the cage has at least one hole for inserting the feeder: a syringe filled of 50% (w/v) aqueous sucrose solution is inserted in one hole.
The tests are conducted under the following conditions: (a) Temperature: 25.00[…]; (b) Relative humidity: 60.00[…], The honeybees are kept under constant darkness except during the assessments. Throughout the experimental phase, the temperature and relative humidity is continuously recorded with a dedicated data-logger with sensors located close to the test units.
The number of dead honeybees per cage is recorded after 4, 24 and 48 hours. If a prolonged observation period is required, further assessments are made every 24 hours, tip to a maximum duration of 96 hours. The amount of diet consumed per group is quantitatively estimated if treated diet will be left after 6 hours of exposure.
Data is summarized in tabular form, showing the number of live, dead and abnormal bees per experimental group. The mortality of each replicate is calculated as a percentage, comparing the number of dead bees to those introduced at the beginning. The mean value of the treated group is compared to the mean mortality of the respective control group(s) using the Abbott's formula modified by Schneider-Orelli (POS BT 200): […]

[5] = human hepatocytes, up to 240 min, 1 μM

N#Cc1nn(-c2c(Cl)cc(C(F)(F)F)cc2Cl)c2nc(O)cc(C(F)(F)F)c12 [Example 1, 1-(2,6-dichloro-4-(trifluoromethyl)phenyl)-6-hydroxy-4-(trifluoromethyl)-1H-pyrazolo[3,4-b]pyridine-3-carbonitrile]
Accumulation in eggs of treated chickens compared to Fipronil [1]: substantially less accumulation in the eggs
Original compound still present ([2]; after 240 minutes, 1 μM, 500,000 cells/mL, 37° C.): approximately 95.5%
Metabolic stability (in words) [2, 5]: metabolically stable
Metabolite peaks observed [2, 5]: no particular peaks indicative of metabolites
% CM (4 hours) ([3]; group T1, dose 0.002 μg/bee): 0.0%
% CM (24 hours) ([3]; group T1, dose 0.002 μg/bee): 0.0%
% CM (48 hours) ([3]; group T1, dose 0.002 μg/bee): 0.0%
% CM (4 hours) ([3]; group T2, dose 0.004 μg/bee): 0.0%
% CM (24 hours) ([3]; group T2, dose 0.004 μg/bee): 19.2%
% CM (48 hours) ([3]; group T2, dose 0.004 μg/bee): 17.4%
% CM (4 hours) ([3]; group T3, dose 0.006 μg/bee): 0.0%
% CM (24 hours) ([3]; group T3, dose 0.006 μg/bee): 15.4%
% CM (48 hours) ([3]; group T3, dose 0.006 μg/bee): 13.0%
% CM (4 hours) ([4]; group T1, dose 0.002 μg/bee): 0.0%
% CM (24 hours) ([4]; group T1, dose 0.002 μg/bee): 7.1%
% CM (48 hours) ([4]; group T1, dose 0.002 μg/bee): 0.0%
% CM (4 hours) ([4]; group T2, dose 0.004 μg/bee): 0.0%
% CM (24 hours) ([4]; group T2, dose 0.004 μg/bee): 0.0%
% CM (48 hours) ([4]; group T2, dose 0.004 μg/bee): 0.0%
% CM (4 hours) ([4]; group T3, dose 0.006 μg/bee): 0.0%
% CM (24 hours) ([4]; group T3, dose 0.006 μg/bee): 50.0%
% CM (48 hours) ([4]; group T3, dose 0.006 μg/bee): 57.7%
